The values below come from ChEMBL document CHEMBL5137025, “Tuberculosis Drug Discovery: Challenges and New Horizons” (J Med Chem, 2022).

Converted amounts (≈) assume the structure as drawn.

For series [1], the system named is Mycobacterium tuberculosis. As to the kind of experiment: microbe, parasite or virus in culture. To be noted: H37Rv.
Description: Antibacterial activity against Mycobacterium tuberculosis H37Rv assessed as inhibition of bacterial growth
Series [2] has as its system Mycobacterium tuberculosis. The class given is functional, H37Rv.
The subject of series [3] is Mycobacterium tuberculosis. The class given is functional. As to conditions: H37Rv, time 6 day.
Series [4] relates to Mycobacterium tuberculosis. As to the kind of experiment: Antibacterial activity against Mycobacterium tuberculosis Kurono in chronic Mtb infection Slc:ICR mouse model assessed as reduction in log10 CFU in lungs at 2.5 mg/kg, po qd for 4 weeks. The class given is functional.
In series [5] the test system is Mycobacterium tuberculosis. The class given is functional. As to conditions: dose 100 mg/kg; route po; time 4 weeks.
A short description of series [6]: Oral bioavailability in Swiss Webster mouse at 10 mg/kg measured for 0.25 to 24 hrs by LC-MS/MS analysis. The class given is ADME, organism-based. To be noted: in vivo, time 0.25-24 hrs.
For series [7], the system named is Mycobacterium tuberculosis. The class given is functional. As to conditions: dose 50 mg/kg; route po; time 4 weeks.
The subject of series [8] is Mycobacterium tuberculosis. As to the kind of experiment: Antibacterial activity against Mycobacterium tuberculosis in acute Mtb infection mouse model assessed as reduction in log10 CFU at 200 mg/kg for 3 weeks. The class given is functional.
In series [9] the test system is Mycobacterium tuberculosis. The series can be described thus: Antibacterial activity against Mycobacterium tuberculosis Erdman in acute Mtb infection BALB/c mouse model assessed as reduction in log10 CFU in lungs at 150 mg/kg, po via gavage daily for 4 weeks. The class given is functional.
Series [10] deals with A549. As to the kind of experiment: Cytotoxicity against human A549 cells. The class given is functional.
The nature of series [11]: Absolute oral bioavailability in overnight fasted Sprague-Dawley rat at 5 mg/kg measured for 0.25 to 24 hrs. The class given is ADME, organism-based. As to conditions: in vivo, time 0.25-24 hrs.
The nature of series [12]: Half life in overnight fasted Sprague-Dawley rat at 5 mg/kg measured for 0.25 to 24 hrs. The class given is ADME, organism-based. As to conditions: in vivo, time 0.25-24 hrs.
The nature of series [13]: AUC in overnight fasted Sprague-Dawley rat at 5 mg/kg measured for 0.25 to 24 hrs. The class given is ADME, organism-based. Details: time upper 24 hrs, dose 5 mg/kg, time lower 0.25 hrs. To be noted: in vivo.
Series [14] is described as follows: Protein binding in human plasma. To be noted: read-out: PPB (converted). The class given is ADME, cell-free.
Series [15] in a line: Solubility of the compound. The class given is physicochemical.
The test system of series [16] is Mycobacterium tuberculosis. As to the kind of experiment: Antibacterial activity against non-replicating Mycobacterium tuberculosis assessed as inhibition of bacterial growth. The class given is functional.
In series [17] the test system is Mycobacterium tuberculosis. The class given is functional. To be noted: H37Rv, 168 h, time 7 day.
Series [18] has as its system Mycobacterium tuberculosis. The series can be described thus: Antibacterial activity against Mycobacterium tuberculosis Erdman in acute Mtb infection BALB/c mouse model assessed as reduction in log10 CFU in lungs at 200 mg/kg, po daily via gavage for 3 weeks. The class given is functional.
A short description of series [19]: Cytotoxicity against human MRC5 cells. The class given is toxicity, cell-based.
For series [20], the system named is Mycobacterium tuberculosis. The class given is functional, H37Rv. As to conditions: dose 50 mg/kg/day; route po; time <= 28 day.
Series [21] has as its system A549. As to the kind of experiment: Potency index, ratio of SKLB-TB1001 to test compound CC50 for cytotoxicity against human A549 cells. The class given is functional.
The subject of series [22] is Mycobacterium tuberculosis. The class given is functional. As to conditions: H37Rv, 120 h, time 5 day.
The subject of series [23] is Mycobacterium tuberculosis. The series can be described thus: Antibacterial activity against Mycobacterium tuberculosis in chronic Mtb infection Wistar rat model assessed as reduction in log10 CFU in lungs at 100 mg/kg, po. The class given is functional.
Series [24] deals with Mycobacterium tuberculosis. The series can be described thus: Antibacterial activity against Mycobacterium tuberculosis in acute Mtb infection BALB/c mouse model assessed as reduction in log10 CFU in lungs at 100 mg/kg for 3 weeks. The class given is functional.
Series [25] concerns Mycobacterium tuberculosis. The class given is functional. As to conditions: H37Rv.
The nature of series [26]: Aqueous solubility of compound in PBS at pH 7.4 incubated for 1 hr. The class given is physicochemical.

In turn, `N=C(N)NC(=O)c1nc(-c2cc3ccccc3o2)c(N)nc1N` came in with an MIC in [1] of 4 µM (≈ 1.25 µg/mL).
With `COc1nc2ccc(Br)cc2cc1[C@@H](c1ccccc1)[C@@](O)(CCN(C)C)c1cccc2ccccc12` [BEDAQUILINE], the Ratio in [2] came to 6. In addition, the MIC90 in series [1] came to 0.022 µM (≈ 0.0122 µg/mL).
In turn, `O=c1c(NCc2ccccn2)c(-c2ccc(C(F)(F)F)cc2)c1=O` gave an MIC80 in series [1] of 6.2 µM (≈ 2.06 µg/mL).
Consider `CC(C)=CCC/C(C)=C/CNCCNC1C2CC3CC(C2)CC1C3` (stereo not drawn) [SQ109], for which the MIC in [1] was 1.2 µM (≈ 0.397 µg/mL).
As for `CNc1nc(SC)nc2ccccc12`, the MIC in series [3] came to 0.13 µM (≈ 0.0267 µg/mL).
For the molecule `CCOC(=O)c1c(-c2ccccc2)oc2ccc(O)c(CN3CCC(C)CC3)c12`, the MIC90 in [1] turned out to be 2.5 µM (≈ 0.984 µg/mL).
In the case of `O=S(=O)(NCCO)c1ccc(-c2nnn(Cc3ccc(F)cn3)n2)cc1`, the MIC in series [1] is 0.07 µM (≈ 0.0265 µg/mL).
Consider `O=C1CCc2c(OC[C@]3(O)CCN(c4c(F)cc(Cl)cc4F)C[C@H]3O)ccc(F)c2N1` [QUABODEPISTAT], for which, in series [4], the Activity is on record as more than 1 log10CFU.
As to `CC(Nc1nc(N2CCCCC2)nc2ccccc12)c1ccccc1` (stereo not drawn), the MIC80 in series [1] was 25 µM (≈ 8.31 µg/mL).
Take `C[C@@H]1[C@H]2C[C@@H](C[C@H]1NC(=O)c1cc3c(F)cc(F)cc3[nH]1)C2(C)C`: the Activity is given as 3.6 log10CFU in series [5] and 4.7 log10CFU in series [7]. Also, the bioavailability in [6] worked out at 96%.
Consider `C[C@@H](O)[C@H]1C(=O)N2C(C(=O)O)=C([C@H]3CCCO3)S[C@H]12` [FAROPENEM], for which the Activity in [8] was found to be 2.4 log10CFU. Besides, the MIC90 in series [1] was 1.8 µM (≈ 0.514 µg/mL).
Consider `c1cc2c(s1)CCOC21CCN(Cc2ccc3c(c2)OCCO3)CC1`, for which, in series [1], the MIC90 is 0.3 µM (≈ 0.107 µg/mL).
On to `O=c1nc(N2CCC3(CC2)OCCO3)sc2c([N+](=O)[O-])cc(C(F)(F)F)cc12`, for which the Activity in [9] came to 3.4 log10CFU. In the series with A549 [10], the CC50 was more than 231 µM. The same molecule gave a bioavailability in series [11] of 44%. The molecule further had a half-life in series [12] of 1.5 h. Moreover, the AUC in series [13] came to 847 ng·h/mL. Moreover, in [14], the fraction unbound was 0.006. This molecule also displayed a solubility in series [15] of less than 2.3 µM. In [1], the MIC90 was found to be 0.045 µM (≈ 0.0188 µg/mL).
For `FC(F)(F)c1ccc(Oc2ccc(Nc3ncnc4ccccc34)cc2)cc1`, in series [1], the MIC50 worked out at 25 µM (≈ 9.53 µg/mL).
With `COc1ncc(-c2ccc(Cl)cc2)cc1[C@@H](c1ccccc1)[C@@](O)(CCN(C)C)c1cccc2ccccc12`, in series [1], the MIC90 was 0.13 µM (≈ 0.0698 µg/mL).
In the case of `O=C(N/N=C/c1cccc(Oc2no[n+]([O-])c2S(=O)(=O)c2ccccc2)c1)c1ccncc1`, in series [16], the MIC90 amounted to 6.7 µM (≈ 3.12 µg/mL). This molecule also registered an MIC in series [17] of 1.6 µM (≈ 0.745 µg/mL). Besides, in series [18], the Activity is reported as more than 6 log10CFU. The same molecule had a CC50 in series [19] of 30 µM.
Molecule `C[C@H]1COC2(CCN(c3nc(=O)c4cc(C(F)(F)F)cc([N+](=O)[O-])c4s3)CC2)O1` [BTZ-043] returned an Activity in [20] of 0.6 log10CFU. In the series with A549 [10], this molecule gave a CC50 of 58 µM. In addition, the Ratio in the series with A549 [21] came to 4. Also, the bioavailability in series [11] was 30%. The same molecule showed a half-life in series [12] of 1.2 h. In series [13], this molecule displayed an area under the curve (AUC) of 899 ng·h/mL.
In turn, `Fc1ccc(-c2nnc3sc(COc4ccccc4)nn23)cc1` showed an MIC in series [1] of 25 µM (≈ 8.16 µg/mL).
The molecule `CS(=O)(=O)N1N=Cc2ccc(Oc3ccc(C#N)cc3)cc2B1O` came in with an MIC90 in [22] of 36 µM (≈ 12.3 µg/mL).
In the case of `COc1ncnc(Cn2cc(C(=O)NCCO)c3ncc(C)cc32)c1C` [TBA-7371], the Activity in [23] is listed as 1 log10CFU.
On to `CCOC(=O)NC(=O)c1ccsc1NC(=O)c1nc2ccccc2s1`, for which the Activity in [24] is 2.9 log10CFU. Also, the MIC90 in series [1] was 0.23 µM (≈ 0.0863 µg/mL).
Regarding `Cc1ccn(C(C)c2nnc(Nc3ccn(Cc4c(F)cccc4Cl)n3)s2)n1` (stereo not drawn), the MIC90 in series [25] was determined as 1 µM (≈ 0.418 µg/mL). The solubility at 1 h in series [26] is 9 µM (≈ 3.76 µg/mL).
